Measured values published in ChEMBL document CHEMBL3352793, “Discovery of pyrrolo-benzo-1,4-diazines as potent Na(v)1.7 sodium channel blockers” (Bioorg Med Chem Lett, 2014).

What was measured:
[1] = in vivo; settings: rat, po, 10 mg/kg
[2] = Mean residence time in rat at 3 mg/kg, iv; type: ADME, organism-based; set-up: dose 3 mg/kg, route intravenous; settings: in vivo
[3] = Cmax in rat at 10 mg/kg, po; type: ADME, organism-based; set-up: dose 10 mg/kg, route oral; settings: in vivo
[4] = Terminal half life in rat at 3 mg/kg, iv; type: ADME, organism-based; set-up: dose 3 mg/kg, route intravenous; settings: in vivo, read-out: beta t1/2 (converted)
[5] = Clearance in rat at 3 mg/kg, iv; type: ADME, organism-based; set-up: dose 3 mg/kg, route intravenous; settings: in vivo
[6] = AUC (0 to 24 hrs) in rat at 3 mg/kg, iv; type: ADME, organism-based; set-up: time < 24 hr, dose 3 mg/kg, route intravenous; settings: plasma
[7] = tested on: Brain; assay: Drug uptake in rat brain at 10 mg/kg, po; type: ADME, organism-based; set-up: dose 10 mg/kg, route oral; settings: in vivo
[8] = Volume of distribution at steady state in rat at 3 mg/kg, iv; type: ADME, organism-based; set-up: dose 3 mg/kg, route intravenous; settings: in vivo, read-out: Vdss
[9] = Tmax in rat at 10 mg/kg, po; type: ADME, organism-based; set-up: dose 10 mg/kg, route oral; settings: in vivo
[10] = AUC (0 to 24 hrs) in rat at 10 mg/kg, po; type: ADME, organism-based; set-up: time < 24 hr, dose 10 mg/kg, route oral; settings: plasma
[11] = Oral bioavailability in rat at 10 mg/kg; type: ADME, organism-based; settings: in vivo
[12] = Mean residence time in rat at 10 mg/kg, po; type: ADME, organism-based; set-up: dose 10 mg/kg, route oral; settings: in vivo
[13] = species: Rattus norvegicus; settings: in vivo, po, 10 mg/kg, 6 h

Row | Compound | AUC(0-t) at 6 h ([1]; in vivo) [µM·h] | further results
1 | N#Cc1ccc(C(=O)N2CCC3(CC2)Nc2ccc(Cl)cc2-n2cccc23)cc1 | 26.1 | 
2 | N#Cc1ccc(C(=O)N2CCC3(CC2)Nc2cc(C(F)(F)F)ccc2-n2cccc23)cc1 | 15.2 | 
3 | COc1ccc2c(c1)NC1(CCN(C(=O)c3ccc(C)cc3)CC1)c1cccn1-2 | 17.2 | 
4 | COc1ccc2c(c1)NC1(CCN(C(=O)c3ccc(C#N)c(OC)c3)CC1)c1cccn1-2 | 26.6 | 
5 | COc1ccc2c(c1)NC1(CCN(C(=O)c3ccc(OC)c(N(C)C)c3)CC1)c1cccn1-2 |  | MRT [2]: 3 h; Cmax [3]: 9.3 µM; half-life [4]: 2.9 h; clearance [5]: 6.5 mL/min/kg; AUC(0-t) at 24 h [6]: 17.4 µM·h; Drug uptake [7]: 257 ng/g; Vd [8]: 1.2 L/kg; Tmax [9]: 1.3 h; AUC(0-t) at 6 h ([1]; plasma): 20.3 µM·h; AUC(0-t) at 24 h [10]: 65.9 µM·h; bioavailability [11]: 100%; MRT [12]: 4.7 h
6 | COc1ccc2c(c1)NC1(CCN(C(=O)c3ccc(C#N)cc3)CC1)c1cccn1-2 | 51.1 | 
7 | COc1ccc(C(=O)N2CCC3(CC2)Nc2cc(OC)ccc2-n2cccc23)cc1 | 91.5 | 
8 | COc1ccc2c(c1)NC1(CCN(C(=O)c3ccc(Cl)cc3)CC1)c1cccn1-2 | 1.96 | 
9 | COc1ccc2c(c1)NC1(CCN(C(=O)c3cccc(Cl)c3)CC1)c1cccn1-2 |  | AUC [13]: 0 µM·h
10 | Cc1cc(C)cc(C(=O)N2CCC3(CC2)Nc2ccccc2-n2cccc23)c1 |  | AUC [13]: 0 µM·h
11 | COc1ccc2c(c1)NC1(CCN(C(=O)OCc3ccccc3)CC1)c1cccn1-2 | 13.1 | 
12 | N#Cc1ccc(C(=O)N2CCC3(CC2)Nc2ccc(Br)cc2-n2cccc23)cc1 | 23.4 | 
13 | COc1ccc2c(c1)NC1(CCN(C(=O)c3cccc(C#N)c3)CC1)c1cccn1-2 | 0.783 | 
14 | N#Cc1ccc(C(=O)N2CCC3(CC2)Nc2cc(Cl)ccc2-n2cccc23)cc1 | 2.9 | 
15 | COc1ccc2c(c1)NC1(CCN(C(=O)c3cc(C)cc(C)c3)CC1)c1cccn1-2 | 0.788 | 
16 | COc1ccc2c(c1)NC1(CCN(Cc3ccccc3)CC1)c1cccn1-2 | 0.37 | 
17 | N#Cc1ccc(C(=O)N2CCC3(CC2)Nc2ccc(F)cc2-n2cccc23)cc1 | 12 | 
18 | COc1cccc(C(=O)N2CCC3(CC2)Nc2cc(OC)ccc2-n2cccc23)c1 |  | AUC [13]: 0 µM·h
19 | COc1ccc2c(c1)NC1(CCN(C(=O)c3ccc(N(C)C)c(Cl)c3)CC1)c1cccn1-2 | 1.27 | 
20 | N#Cc1ccc(C(=O)N2CCC3(CC2)Nc2cc(OC(F)(F)F)ccc2-n2cccc23)cc1 | 11.7 | 
21 | COc1ccc2c(c1)NC1(CCN(C(=O)c3ccccc3OC)CC1)c1cccn1-2 |  | AUC [13]: 0 µM·h
22 | COc1ccc2c(c1)NC1(CCN(C(=O)c3ccc(OC)c(Cl)c3)CC1)c1cccn1-2 | 6.81 | 
23 | N#Cc1ccc(C(=O)N2CCC3(CC2)Nc2ccccc2-n2cccc23)cc1 | 1.01 | 
24 | COc1ccc2c(c1)NC1(CCN(C(=O)c3ccc(N(C)C)cc3)CC1)c1cccn1-2 | 9.44 | 
25 | COc1ccc2c(c1)NC1(CCN(C(=O)c3cccc(C)c3)CC1)c1cccn1-2 |  | AUC [13]: 0 µM·h
26 | CN(C)c1cccc(C(=O)N2CCC3(CC2)Nc2ccccc2-n2cccc23)c1 | 0.633 | 
